Values joined by “and” are separate entries in the source; they are usually repeats but may differ in a detail not shown here. Equal entries are not always repeated.
Assays:
[1] = Aqueous solubility of JP-3-110 by HPLC (saturated water solution); format: physicochemical
Description: The column was Inertsil ODS-3, 250×4.6 mm, 5 μm. […] From top to bottom, 0.2, 2, 20, 200, 2000 μg/mL of JP-3-110 in acetonitrile (ACN).
(§1) Quinic acid amide analog TNP was synthesized as described before. See Zeng et al., 2009, Bioorganic & Medicinal Chemistry Letters, 19:5458-5460. JP-3-110 was synthesized by conjugating TNP with MPA and the structure of JP-3-110 was confirmed by 1H NMR. FIG. 1B. […] FIGS. 7A-7D. To improve solubility, the inventors conceived to introduce aqueous solubility enhancing groups such as ionizable groups —CO2H, —SO3H or amino groups, sugars at positions R1, R2 and/or R10 of Formulas II and III. Such introduction would require routine skills. The ester bond of JP-3-110 is susceptible to hydrolytic degradation, releasing TNP and MPA as two single drugs. More than 40% of JP-3-110 in the aqueous solution will be degraded when stored in 4° C. for 1 week (FIGS. 9A-9C).

[2] = Hydrolytic stability of JP-3-110 aqueous solution by HPLC; format: physicochemical; conditions: aqueous solution (0.4 mg/mL) stored in 4° C. for 1 week
Description: The peak at 2 minutes was denoted as MPA degraded from JP-3-110.
as §1

PHA-stimulated T cells = test: T cell activation markers in medium of PHA-stimulated T cells by ELISA; format: cell-based, human; conditions: 5 μM; for level of IFNγ / level of TNFα: medium of T cells following PHA stimulation; for level of IL-2 / level of IL-2 receptors: medium of T cells, 48 h following PHA stimulation
Description: Briefly, human peripheral blood mononuclear cells PBMCs were isolated from human buffy coat using Ficoll-Paque. T cells ([…]) were isolated from PBMCs using dynabeads for human CD3+ T cells and subjected to PHA (1 μg/mL) stimulation for 24 h alone or with JP-3-110 (5 μM) and MPA (5 μM) for additional 48 h. The PHA-stimulated proliferation of T cells is characterized by a quick drop in the early stage (24 h) and a following fast-proliferative stage. FIGS. 3B and 3C show charts depicting the levels of IL-2, IL-2 receptor, TNFα and IFNγ in the media of T cells at 48 h following PHA stimulation. IL-2 and IL-2 receptor were transient expressed markers for early stage T cell activation while TNFα and IFNγ were stably expressed markers for later-stage T cell activation. Results are presented as the mean±S.D., n=6.
PBMCs were isolated using Ficoll Paque. T cells were isolated from PBMCs using Dynabeads for. T cells were stimulated with PHA (1 μg/ml) for 24 h alone or in the presence of TNP (5 μM) or JP-3-110 (5 μM) for additional 4 days. The total number of PBMCs was measured using T4 Automatic Cell Counter (Nexcelom, Lawrence, Mass.). The extent of T cell activation was determined by measuring the level of IL-2, IL-2sRa, TNFα and IFN-γ in the medium using ELISA at indicated time.
Mixed lymphocytes reaction was used to determine the immunosuppressive effects of MPA and JP-3-110. T cells were purified using dynabeads from peripheral blood mononuclear cells (PBMCs), which were initially isolated from human buffy coat (FIG. 8A). […] The levels of IL-2, IL-2sRa, TNFα and IFNγ were detected by ELISA to study the effects of JP-3-110 and MPA on T cell activation. IL-2 and IL-2R typically peaked at the first 48 h after PHA stimulation as markers for the early stage T cell activation, while TNFα and IFNγ were constitutively expressed by PHA-stimulated T cells as later-stage markers for T cell activation. […] However, the results might be due to an overlap between the immunosuppressive pathway and the anti-inflammatory pathway of JP-3-110 and MPA.

human islets [3] = test: Annexin V-FITC flow cytometry of apoptotic cells in human islets; format: cell-based; conditions: 20 μM, 5 days coculture
Description: Results are presented as the mean±S.D., n=3. […] Apoptotic cells were stained in dark (arrows). […] Islet was collected and dispersed with 0.25% Trypsin/EDTA into single cell suspension. P3 indicated the percentage of apoptotic cells. All experiments were performed in triplicates. Results are presented as the mean±SD. *p<0.05 as determined by an unpaired Student's t-test, n=6.
The apoptosis of INS-1E cells was analyzed using terminal deoxynucleotidyl transferase dUTP nick end labeling (TUNEL). Briefly, following JP-3-110 treatment for 48 h and cytokine cocktail treatment for additional 48 h, INS-1E cells were characterized by the DeadEnd™ Colorimetric TUNEL system (Promega, Madison, Wis., USA), in which fragmented DNA from apoptotic cells was labeled with biotinylated nucleotide and detected using hydrogen peroxide and diaminobenzidine. For human islets, following treatment with JP-3-110 and cytokines, human islets were digested with 0.25% trypsin/EDTA into a single-cell suspension, stained with the Annexin V-FITC Apoptosis Detection Kit (Abcam, Cambridge, Mass.) and analyzed with flow cytometry. Annexin V binds to phosphatidylserine on the cell surface, which is a feature found in apoptotic cells. Fluorescent intensity was analyzed using CellQuest software (BD Bioscience, Franklin Lakes, N.J.). […]
We then determined the conjugation with TNP can reduce the pro-apoptotic effect of MPA. […]

human islets [4] = test: Dynamic insulin release (perifusion) assay of human islets; format: cell-based; conditions: co-incubation with drug; for insulin release pattern under stimulatory glucose: basal then stimulatory glucose
Description: Briefly, 50 islets from each group were perifused with basal glucose for 60 min and stimulatory glucose for 30 min and finally with basal glucose until insulin release reversed to the basal level. Samples were collected through an automatic fraction collector and analyzed for insulin content by ELISA.
The insulin secretion from human islets was quantified using a dynamic islet perifusion assay as described before. See Wu et al., 2011, The Journal of Gene Medicine, 13:658-669. Briefly, 50 islets from each group were handpicked and loaded onto a Swinnex 13 chamber (Millipore, Burlington, Mass., USA) and perifused with Krebs-Ringer bicarbonate HEPES buffer of the following composition (in mM): 129 NaCl, 5 NaHCO3, 4.8 KCl, 1.2 KH2PO4, 1.2 MgSO4, 2.5 CaCl2, and 10 HEPES at pH 7.4. The flow rate was maintained at 1 ml/min with a peristaltic pump (Themo Fisher, Waltham, Mass.) and the temperature was maintained at 37° C. with a solution heater (Warner Instruments, Hamden, Conn.). Islets were first perifused with basal glucose for 60 min, stimulatory glucose for 20 min and basal glucose until insulin release reversed to the basal level. The perifusion speed was set to 2 mL/minute and samples were collected once per minute through an automatic fraction collector (Waters, Milford, Mass.) and analyzed for insulin content by ELISA.
A dynamic insulin release assay was used to evaluate the function of human islets. Briefly, […] handpicked human islets were sequentially perfused with basal and stimulatory glucose. The samples were collected using an auto-sampler and subjected to ELISA.

| SMILES | solubility class according to USP solubility criteria [1] | solubility ([1]; thermodynamic from solid, by HPLC) | JP-3-110 degraded in aqueous solution [2] | level of IFNγ (PHA-stimulated T cells) | level of TNFα (PHA-stimulated T cells) | level of IL-2 (PHA-stimulated T cells) | level of IL-2 receptors (PHA-stimulated T cells) | apoptotic cells in human islets (annexin V) (human islets [3]) | insulin release pattern under stimulatory glucose (human islets [4]) | total insulin release to stimulatory glucose (human islets [4]) |
| --- | --- | --- | --- | --- | --- | --- | --- | --- | --- | --- |
| CCCCNC(=O)[C@]1(O)C[C@@H](O)[C@@H](O)[C@H](OC(=O)CC/C(C)=C/Cc2c(OC)c(C)c3c(c2OC(C)=O)C(=O)OC3)C1 [JP-3-110, (1R,2R,3R,5S)-5-(butylcarbamoyl)-2,3,5-trihydroxycyclohexyl (E)-6-(4-acetoxy-6-methoxy-7-methyl-3-oxo-1,3-dihydroisobenzofuran-5-yl)-4-methylhex-4-enoate] | practically insoluble | 480 µg/mL and 800 µM | More than 40% | moderate inhibition | moderate inhibition | did not have any effect | did not have any effect | significantly reduced the percentage of apoptotic cells | clear biphasic insulin release | – |
| COc1c(C)c2c(c(O)c1C/C=C(\C)CCC(=O)O)C(=O)OC2 [MPA, mycophenolic acid, reference compound] | – | – | – | moderate inhibition | moderate inhibition | did not have any effect | did not have any effect | induced substantial apoptotic cell death | impaired the insulin release from both phases | significantly reduction |

From patent US10369133B2, “Immunosuppressive compounds and therapeutics” (UNIVERSITY OF TENNESSEE RESEARCH FOUNDATION, priority 2013, dated 2019)
